# Measurements as given in publication PMC7459852, “Identification of 6-(piperazin-1-yl)-1,3,5-triazine as a chemical scaffold with broad anti-schistosomal activities” (Wellcome Open Research, 2020).
# Read-outs that look alike come from different tables or passages of the source.
# Legend:
# [1] = system: schistosomula and adult schistosomes; design: method as in PMID 31730617; conditions: SGC collection tested by the authors' laboratory; cited from earlier work
# S. mansoni schistosomula = assay: Schistosomula screens (Roboworm, phenotype and motility); format: cell-based, Schistosoma mansoni; conditions: 72 h; for EC50: Schistosoma mansoni
# Protocol: Anthelmintic activity on the schistosomula stage of S. mansoni was evaluated using Roboworm, an integrated high-throughput, high content image analysis platform originally developed by Paveley et al. and subsequently used by our research group as previously described, [28], [50], [51]. Alternatively, the computer application Worminator can be used to assess motion of microscopic parasites such as the schistosomula stage of S. mansoni. Compounds (as single concentration or two-fold titrations) were prepared for screening in a 384-well plate (PerkinElmer, MA, USA), where solutions (1.6 mM, 0.5 μl) were wet stamped using the Biomek NX ^P liquid handling platform into Basch medium (20 μl). Negative (0.625% DMSO) and positive (Auranofin - AUR - at 10 µM final concentration in 0.625% DMSO) control wells were similarly prepared. Mechanically transformed schistosomula (about 120 parasites in 60 μl of Basch medium) were distributed into each treated well using a WellMate (Thermo Scientific, Loughborough, UK). Schistosomula/compound co-cultures were then incubated at 37°C for 72 h in a humidified atmosphere containing 5% CO 2. At 72 h, parasite/compound co-cultures were resuspended and tissue culture plates were imaged under the same conditions (37°C for 72 h in a humidified atmosphere containing 5% CO 2) using an ImageXpressXL high content imager (Molecular Devices, UK) with subsequent images processed for phenotype and motility as previously reported. Plate analysis returned a phenotype and motility score for each well and any scores below -0.15 and -0.35 (defined threshold anti-schistosomula values for phenotype and motility scores, respectively) defined a condition displaying anti-schistosomula activity. Compound screens were assessed based on the Z´ values (derived from the means and standard deviations of positive and negative controls) and those equal to or above 0.3 for both phenotype and motility were considered successful.
# Phenotype and motility scores of each titration were used to generate dose response curves in GraphPad Prism 7.02 based on the corrected average score of the three replicates for each data point.
# S. mansoni adult worms = assay: Adult worm screens (WormassayGP2 motility, egg count); format: cell-based, Schistosoma mansoni; conditions: 72 h; for adult worm egg production / adult worm motility compared to compound 7: 12.5 µM; for adult worm motility and oviposition: 6.25 µM, compared to compound 7
# Protocol: For compound screening, adult worms (three worm pairs/well for compound 7 and the hit compounds of set two; one worm pair/well for the hit compounds of set three) were transferred into wells of a 48-well tissue culture plate containing 1 ml of adult worm media. Adult worms were treated with compounds previously identified as hits at 10 µM on 72 h cultured schistosomula. Worms were dosed with an appropriate volume of 10 mM stock solution of each compound (in DMSO) to have a concentration range of 50 – 6.25 µM (up to 0.5% DMSO, primary screen of compound 7). Secondary screens were performed on the structural analogues of compound 7 (only the schistosomula hits at 10 µM) at a single concentration (12.5 µM) and compared to the same concentration of the parental compound (included in the screen as reference). DMSO (0.5%) and praziquantel (10 µM in 0.5% DMSO) were also included as negative and positive control treatments (both primary and secondary screens). Treated adult worms were incubated for 72 h in a humidified environment at 5% CO 2 at 37°C. Parasite motility after drug treatment was assessed by a digital image processing-based system (WormassayGP2, see Software availability) modified after Wormassay, [56], [57]. Egg production was assessed according to the methodology described by Edwards et al..
# S. mansoni miracidia = assay: Miracidia to sporocyst transformation screens; format: cell-based, Schistosoma mansoni; conditions: 10 µM, 48 h
# Protocol: Following hatching of S. mansoni eggs, miracidia were incubated on ice for 15 min and then centrifuged at 700 x g for 5 min at 4°C. The miracidia pellet was then re-suspended in 5 ml of Chernin's balanced salt solution (CBSS), subjected to pelleting and two subsequent washes (all at 700 x g for 5 min at 4°C). Afterwards, the supernatant was carefully removed with a serological pipette and the miracidia-enriched pellet was resuspended with CBSS supplemented with 1 mg/ml each of glucose and trehalose and 500 µl of Penicillin-Streptomycin (containing 10,000 units penicillin and 10 mg streptomycin/ml, P4333, Sigma-Aldrich). In preparation for the screens, CBSS (250 µl) was aliquoted to each well of a 24-well plate followed by addition of each compound in DMSO (1 mM concentration in 1% DMSO) or DMSO alone (1%, negative control). Next, approximately 20-25 miracidia (in 250 µl of CBSS) were aliquoted to each well. […] Both preliminary and secondary screens were performed in duplicate on two separate occasions (two independent biological replicates). Miracidia were incubated for 48 h at 26°C before being evaluated using an Olympus inverted light microscope for morphological and behavioural changes differing from the control wells. Dead, partially transformed and fully transformed miracidia were enumerated in the DMSO control and the assay plates as previously described, [23], [59]. […] Absence of ciliated plates attached to the surface of the parasite and formation of sporocyst tegument defined the so-called “fully transformed” parasites.
# [2] = MTT cytotoxicity assay on HepG2 cells; format: cell-based, Human; conditions: human, HepG2 cells, MTT, 24 h; three dose response titrations (200 - 1 µM)
# Protocol: (§1) Compound cytotoxicity on Human Hepatocyte Carcinoma (HepG2) cells (85011430, Sigma Aldrich) was elucidated by the MTT (3-(4,5-dimethylthiazol-2-yl)-2,5-diphenyltetrazolium bromide) tetrazolium reduction assay as previously described, [28], [50]. Briefly, HepG2 cells were seeded at a density of 20,000 per well in 96-well black, clear bottom falcon plate in modified BME medium (50 μl; containing 1% antibiotic/mycotic (Sigma-Aldrich, Gillingham, UK), 1% 200 mM L-glutammine (Gibco, Paisley, UK), 1% MEM non-essential amino acid solution (Gibco, Paisley, UK), and 10% fetal bovine serum (Gibco, Paisley, UK)). HepG2 plates seeded for cytotoxicity screens were treated with compounds 24 h post-seeding. Each compound was tested at 200, 100, 75, 50, 20, 10 and 1 µM; each concentration was assayed in triplicate. Blank wells (no cells), as well as positive (1% v/v Triton X-100, X100, Sigma-Aldrich) and negative (1.25% v/v DMSO or media only) controls, were included in each plate. After addition of compounds, each plate was then incubated for a further 20 h before application of MTT reagent for assessment of compound cytotoxicity (4 h incubation with MTT for a total 24 h cell-drug incubation). The absorbance reading at 570 nm was measured with a POLARstar Omega (BMG Labtech, UK) microtiter plate reader. Dose response curves were generated in GraphPad Prism 7.02 based on the corrected average absorbance of the three replicates for each concentration point.
# HepG2 cells = assay: MTT cytotoxicity assay on HepG2 cells; format: cell-based, Human; conditions: dose response titration
# Protocol: as §1
# [3] = average of phenotype and motility metrics, read-out: Schistosomula EC50 Average
# [4] = dose response titrations (10 - 0.625 µM), read-out: Schistosomula EC50 Motility
# [5] = dose response titrations (10 - 0.625 µM), read-out: Schistosomula EC50 Phenotype
EC50 (S. mansoni schistosomula; [3]) [µM],EC50 (S. mansoni schistosomula; [4]) [µM],EC50 (S. mansoni schistosomula; [5]) [µM],Compound,activity on schistosomula and adult schistosomes [1],other results
–,–,–,CCN(C(=O)CO)[C@H]1CN(/C(=N\C#N)Nc2cccc(OC(F)F)c2)N=C1c1ccc(Cl)c(Cl)c1 [BAY-598],potent activities,–
–,–,–,O=C1CNC(=O)/C1=C\Nc1ccc(O)cc1 [Compound 4],–,anti-schistosomula activity (hit on phenotype and motility) (S. mansoni schistosomula; 50 µM): showed anti-schistosomal activity; schistosomula phenotype induced (S. mansoni schistosomula; 50 µM): elongated phenotype
4.12,4.98,3.27,c1ccc(Nc2nc(Nc3ccccc3)nc(N3CCNCC3)n2)cc1 [Compound 8],–,adult worm egg production (S. mansoni adult worms): reducing egg production similarly to compound 7; adult worm motility compared to compound 7 (S. mansoni adult worms): more potent than the original hit compound; effect on miracidia (S. mansoni miracidia): readily killed miracidia; CC50 at 24 h [2]: 14.9 µM
> 50,> 50,> 50,C1CN(c2nc(N3CCOCC3)nc(N3CCOCC3)n2)CCN1 [Compound 10],–,–
> 50,> 50,> 50,c1ccc2sc(N3CCN(c4nc(N5CCOCC5)nc(N5CCOCC5)n4)CC3)nc2c1 [Compound 11],–,–
4.49,4.41,4.57,c1ccc(CNc2nc(Nc3ccccc3)nc(N3CCNCC3)n2)cc1 [Compound 12],–,adult worm egg production (S. mansoni adult worms): reducing egg production similarly to compound 7; adult worm motility compared to compound 7 (S. mansoni adult worms): more potent than the original hit compound; effect on miracidia (S. mansoni miracidia): readily killed miracidia; CC50 at 24 h [2]: 11 µM
4.76,4.82,4.7,Cc1ccccc1Nc1nc(Nc2ccccc2C)nc(N2CCNCC2)n1 [Compound 13],–,effect on miracidia (S. mansoni miracidia): readily killed miracidia; CC50 at 24 h [2]: 17.9 µM
> 10,> 10,> 10,Cc1ccccc1Nc1nc(N2CCNCC2)nc(N2CCOCC2)n1 [Compound 14],–,anti-schistosomula activity (hit on phenotype and motility) (S. mansoni schistosomula; 50 µM): only active at 50 µM
1.44,1.79,1.09,Cc1ccc(Nc2nc(N3CCNCC3)nc(N3CCOCC3)n2)cc1 [Compound 15],–,adult worm egg production (S. mansoni adult worms): reducing egg production similarly to compound 7; adult worm motility compared to compound 7 (S. mansoni adult worms): more potent than the original hit compound; effect on miracidia (S. mansoni miracidia): all readily killed miracidia except for compounds 15 and 16; CC50 at 24 h [2]: 23.9 µM
–,> 10,> 10,C1CCN(c2nc(N3CCCC3)nc(N3CCNCC3)n2)C1 [Compound 17],–,anti-schistosomula activity (hit on phenotype and motility) (S. mansoni schistosomula; 50 µM): active at the highest concentration
> 50,> 50,> 50,O=S(=O)(c1ccc(Cl)cc1)N1CCN(c2nc(N3CCCCC3)nc(N3CCCCC3)n2)CC1 [Compound 18],–,–
> 50,> 50,> 50,O=C(c1ccc(Cl)cc1)N1CCN(c2nc(N3CCCCC3)nc(N3CCCCC3)n2)CC1 [Compound 19],–,–
–,4.93,3.47,CC(=O)Nc1ccc(S(=O)(=O)N2CCN(c3nc(N4CCCCC4)nc(N4CCCCC4)n3)CC2)cc1 [Compound 20],–,"anti-schistosomula activity (hit on phenotype and motility) (S. mansoni schistosomula; 50 µM): active at the highest concentration; adult worm motility and oviposition (S. mansoni adult worms): strong anthelmintic activities; adult worm egg production (S. mansoni adult worms): greater potency than compound 7; adult worm motility compared to compound 7 (S. mansoni adult worms): greater potency than compound 7; effect on miracidia (S. mansoni miracidia): readily killed miracidia; CC50 at 24 h [2]: > 100 µM; cytotoxicity on HepG2 cells (in words) (HepG2 cells): not toxic to this cell line, except for concentrations above 100 µM"
> 50,> 50,> 50,O=[N+]([O-])c1ccc2nc(N3CCN(c4nc(N5CCOCC5)nc(N5CCOCC5)n4)CC3)sc2c1 [Compound 21],–,–
–,1.64,2.09,c1ccc(Nc2nc(N3CCNCC3)nc(N3CCOCC3)n2)cc1 [Compound 22],–,anti-schistosomula activity (hit on phenotype and motility) (S. mansoni schistosomula; 50 µM): active at the highest concentration; CC50 at 24 h [2]: 93.5 µM
–,1.81,1.57,Cc1ccc(Nc2nc(N3CCNCC3)nc(N3CCN(c4ccccc4)CC3)n2)cc1 [Compound 24],–,anti-schistosomula activity (hit on phenotype and motility) (S. mansoni schistosomula; 50 µM): active at the highest concentration; adult worm motility and oviposition (S. mansoni adult worms): the most potent; adult worm egg production (S. mansoni adult worms): greater potency than compound 7; adult worm motility compared to compound 7 (S. mansoni adult worms): greater potency than compound 7; effect on miracidia (S. mansoni miracidia): readily killed miracidia; cytotoxicity on HepG2 cells (in words) (HepG2 cells): showed the highest toxicity
–,–,–,Clc1cc2c(NC3CCCC3)nnc(-c3ccncc3)c2cc1Cl [Compound A-196],potent activities,–
–,–,–,CCCc1cc(C)[nH]c(=O)c1CNC(=O)c1cc(-c2ccnc(N3CCN(C)CC3)c2)cc2c1cnn2C(C)C [GSK343],potent activities,–
–,–,–,COc1cc(C(=O)N2CC[C@@H](O)[C@@H](N)C2)cc2nc(-c3cc4ccccc4n3CC3CC3)n(C)c12 [GSK484],potent activities,–
–,–,–,CCOC(=O)CCNc1cc(N2CCc3ccccc3CC2)nc(-c2ccccn2)n1 [GSK-J4],potent activities,–
–,–,–,Cc1cn(CCN2CCN(c3ccccc3-c3cc(C#N)cc(C(=O)NCCCN4CCCC4)c3)CC2)c2ccccc12 [LLY-507],potent activities,–
–,–,–,CC(C)Oc1ccc(-c2c[nH]cc2CN(C)CCN)cc1 [MS023],potent activities,–
–,–,–,CCCc1cc(C)[nH]c(=O)c1CNC(=O)c1cc(-c2ccc(N3CCN(C(C)C)CC3)nc2)cc2c1cnn2C(C)C [UNC1999],potent activities,–
